Test results reported in US20140243292A1, “SUBSITUTED 2-(CHROMAN-6-YLOXYL)-THIAZOLES AND THEIR USE AS PHARMACEUTICALS” (Sanofi, priority 2011, published 2014).
Structures can show the parent of a compound that is named as a salt.

What follows are compounds tested against T1, human NCX1 (Homo sapiens, UniProt P32418) (assay: NCX1 inhibition, reverse mode (Ca2+ influx into cells), FLIPR Fluo-4 assay). Settings: NCX1 reverse mode; at 30 μM; read-out: Inhibition in % at 30 μM (NCX1rv; IC50 value not determined).
T1 construct: expressed in transfected cells
Type: cell-based
Method in brief: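 CHO cells stably expressing human NCX1 were loaded with 2 µM Fluo-4 AM for 80 min at room temperature, then preincubated with compound for 45 min at 16 °C in pH 7.4 HEPES buffer (3.5 mM CaCl2, 2.5 mM probenecid). Reverse-mode Ca2+ influx was triggered by 20 µM final gramicidin and read at 520 nm on FLIPR. IC50 came from % inhibition of max−min fluorescence.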

Row | SMILES | inhibition at 30 µM [%]
1 | CCOC(=O)C[C@H](O)[C@H](CC1CCCCC1)NC(=O)c1cnc(Oc2ccc3c(c2)CC[C@@H](c2ccccc2)O3)s1 [compound 227] | 30
2 | CC(C)C[C@@H](NC(=O)c1cnc(Oc2ccc3c(c2)CC[C@@H](c2ccccc2)O3)s1)C(=O)OC(C)(C)C [compound 228] | 46
3 | CC(C)C[C@H](NC(=O)c1cnc(Oc2ccc3c(c2)CC[C@@H](c2ccccc2)O3)s1)C(=O)OC(C)(C)C [compound 229] | 44

Same assay, conditions: inhibition of NCX1 in reverse mode (Ca2+ influx into cells); read-out: NCX1rv IC50

Row | SMILES | IC50 [nM]
4 | CCC(C)[C@H](NC(=O)c1cnc(Oc2ccc3c(c2)CC[C@@H](c2ccccc2)O3)s1)C(=O)OC (stereo partly drawn) [compound 183] | 1200
5 | COC(=O)[C@@H](C)NC(=O)c1cnc(Oc2ccc3c(c2)CC[C@@H](c2ccccc2)O3)s1 [compound 184] | 400
6 | COC(=O)[C@@H]1CCCN1C(=O)c1cnc(Oc2ccc3c(c2)CC[C@@H](c2ccccc2)O3)s1 [compound 185] | 500
7 | CCOC(=O)[C@@H](NC(=O)c1cnc(Oc2ccc3c(c2)CC[C@@H](c2ccccc2)O3)s1)C(C)C [compound 186] | 700
8 | COC(=O)C1(NC(=O)c2cnc(Oc3ccc4c(c3)CC[C@@H](c3ccccc3)O4)s2)CCCC1 [compound 187] | 600
9 | CCOC(=O)C1(NC(=O)c2cnc(Oc3ccc4c(c3)CC[C@@H](c3ccccc3)O4)s2)CC1 [compound 188] | 600
10 | CN(CC(=O)O)C(=O)c1cnc(Oc2ccc3c(c2)CC[C@@H](c2ccccc2)O3)s1 [compound 190] | 900
11 | C[C@H](NC(=O)c1cnc(Oc2ccc3c(c2)CC[C@@H](c2ccccc2)O3)s1)C(=O)O [compound 191] | 600
12 | O=C(O)CNC(=O)c1cnc(Oc2ccc3c(c2)CC[C@@H](c2ccccc2)O3)s1 [compound 192] | 500
13 | CC(C)(NC(=O)c1cnc(Oc2ccc3c(c2)CC[C@@H](c2ccccc2)O3)s1)C(=O)O [compound 193] | 600
14 | C[C@@H](NC(=O)c1cnc(Oc2ccc3c(c2)CC[C@@H](c2ccccc2)O3)s1)C(=O)O [compound 194] | 700
15 | O=C(NC1(C(=O)O)CCCC1)c1cnc(Oc2ccc3c(c2)CC[C@@H](c2ccccc2)O3)s1 [compound 195] | 700
16 | CCC(C)[C@H](NC(=O)c1cnc(Oc2ccc3c(c2)CC[C@@H](c2ccccc2)O3)s1)C(=O)O (stereo partly drawn) [compound 196] | 500
17 | CC(C)[C@H](NC(=O)c1cnc(Oc2ccc3c(c2)CC[C@@H](c2ccccc2)O3)s1)C(=O)O [compound 197] | 600
18 | O=C(O)CN1CCN(C(=O)c2cnc(Oc3ccc4c(c3)CC[C@@H](c3ccccc3)O4)s2)CC1 [compound 198] | 1300
19 | O=C(NC1(C(=O)O)CC1)c1cnc(Oc2ccc3c(c2)CC[C@@H](c2ccccc2)O3)s1 [compound 199] | 1000
20 | O=C(N[C@H]1CCCC[C@H]1C(=O)O)c1cnc(Oc2ccc3c(c2)CC[C@@H](c2ccccc2)O3)s1 [compound 200] | 400
21 | O=C(N[C@H](CO)c1ccccc1)c1cnc(Oc2ccc3c(c2)CC[C@@H](c2ccccc2)O3)s1 [compound 201] | 300
22 | C[C@H](O)[C@H](CO)NC(=O)c1cnc(Oc2ccc3c(c2)CC[C@@H](c2ccccc2)O3)s1 [compound 202] | 200
23 | CC(C)[C@@H](CO)NC(=O)c1cnc(Oc2ccc3c(c2)CC[C@@H](c2ccccc2)O3)s1 [compound 203] | 400
24 | O=C(NCCO)c1cnc(Oc2ccc3c(c2)CC[C@@H](c2ccccc2)O3)s1 [compound 204] | 100
25 | O=C(c1cnc(Oc2ccc3c(c2)CC[C@@H](c2ccccc2)O3)s1)N1CCC[C@H]1CO [compound 205] | 300

Row | SMILES | IC50 [nM]
26 | O=C(NC[C@H]1CCCC[C@H]1O)c1cnc(Oc2ccc3c(c2)CC[C@@H](c2ccccc2)O3)s1 [compound 207] | 500
27 | CC[C@H](C)[C@@H](CO)NC(=O)c1cnc(Oc2ccc3c(c2)CC[C@@H](c2ccccc2)O3)s1 [compound 208] | 400
28 | CC[C@@H](C)[C@H](CO)NC(=O)c1cnc(Oc2ccc3c(c2)CC[C@@H](c2ccccc2)O3)s1 [compound 209] | 300
29 | c1ccc([C@@H]2CCc3cc(Oc4ncc(CNCc5ccno5)s4)ccc3O2)cc1 [compound 210] | 100
30 | O=C(NCc1ccnc(Cl)c1)c1cnc(Oc2ccc3c(c2)CCC(c2ccsc2)O3)s1 (stereo not drawn) [compound 211, hydrochloride] | 400
31 | O=C(NCc1ccno1)c1cnc(Oc2ccc3c(c2)CCC(c2ccsc2)O3)s1 (stereo not drawn) [compound 212] | 300
32 | CN1CCN(C(=O)c2cnc(Oc3ccc4c(c3)CC[C@@H](c3ccccc3)O4)s2)CC1 [compound 213, hydrochloride] | 800
33 | Cc1ccccc1C1CCc2cc(Oc3ncc(C(=O)NCc4ccnc(Cl)c4)s3)ccc2O1 (stereo not drawn) [compound 215] | 1000
34 | O=C(NCc1ccno1)c1cnc(Oc2ccc3c(c2)CCC(c2cc(F)ccc2F)O3)s1 (stereo not drawn) [compound 217] | 200
35 | COC(=O)C(C)(Cc1ccccc1)NC(=O)c1cnc(Oc2ccc3c(c2)CC[C@@H](c2ccccc2)O3)s1 (stereo partly drawn) [compound 218] | 2500
36 | CCOC(=O)[C@H](Cc1ccccc1)NC(=O)c1cnc(Oc2ccc3c(c2)CC[C@@H](c2ccccc2)O3)s1 [compound 219] | 4800
37 | COC(=O)[C@@H](NC(=O)c1cnc(Oc2ccc3c(c2)CC[C@@H](c2ccccc2)O3)s1)C(C)(C)C [compound 220] | 600
38 | COC(=O)C1CN(C(=O)c2cnc(Oc3ccc4c(c3)CC[C@@H](c3ccccc3)O4)s2)CC1C(F)(F)F (stereo partly drawn) [compound 221] | 300
39 | COC(=O)[C@@H]1[C@@H]2C[C@@H]2CN1C(=O)c1cnc(Oc2ccc3c(c2)CC[C@@H](c2ccccc2)O3)s1 [compound 222] | 900
40 | COC(=O)[C@@H]1CC(C)(C)CN1C(=O)c1cnc(Oc2ccc3c(c2)CC[C@@H](c2ccccc2)O3)s1 [compound 223] | 1300
41 | COC(=O)C1CN(C(=O)c2cnc(Oc3ccc4c(c3)CC[C@@H](c3ccccc3)O4)s2)CC1C (stereo partly drawn) [compound 224] | 300
42 | COC(=O)C1(C)CCN(C(=O)c2cnc(Oc3ccc4c(c3)CC[C@@H](c3ccccc3)O4)s2)C1 (stereo partly drawn) [compound 225] | 500
43 | COC(=O)[C@H](O)[C@H](CC(C)C)NC(=O)c1cnc(Oc2ccc3c(c2)CC[C@@H](c2ccccc2)O3)s1 [compound 226] | 700
44 | CCOC(=O)C(CNC(=O)c1cnc(Oc2ccc3c(c2)CC[C@@H](c2ccccc2)O3)s1)CC(C)C (stereo partly drawn) [compound 230] | 1500
45 | COC(=O)C(C)(CC(C)C)NC(=O)c1cnc(Oc2ccc3c(c2)CC[C@@H](c2ccccc2)O3)s1 (stereo partly drawn) [compound 231] | 1500
46 | Cc1ccc(C2CCc3cc(Oc4ncc(C(=O)NCc5ccno5)s4)ccc3O2)cn1 (stereo not drawn) [compound 232] | 1500
47 | CC(Cc1ccccc1)(NC(=O)c1cnc(Oc2ccc3c(c2)CC[C@@H](c2ccccc2)O3)s1)C(=O)O (stereo partly drawn) [compound 233] | 800

Row | SMILES | IC50 [nM]
48 | CC1(C)C[C@@H](C(=O)O)N(C(=O)c2cnc(Oc3ccc4c(c3)CC[C@@H](c3ccccc3)O4)s2)C1 [compound 234] | 1000
49 | CC1CN(C(=O)c2cnc(Oc3ccc4c(c3)CC[C@@H](c3ccccc3)O4)s2)CC1C(=O)O (stereo partly drawn) [compound 235] | 500
50 | CC(C)C[C@H](NC(=O)c1cnc(Oc2ccc3c(c2)CC[C@@H](c2ccccc2)O3)s1)[C@@H](O)C(=O)O [compound 236] | 1600
51 | CC(C)C[C@@H](NC(=O)c1cnc(Oc2ccc3c(c2)CC[C@@H](c2ccccc2)O3)s1)C(=O)O [compound 237] | 800
52 | CC(C)CC(CNC(=O)c1cnc(Oc2ccc3c(c2)CC[C@@H](c2ccccc2)O3)s1)C(=O)O (stereo partly drawn) [compound 238] | 300
53 | CC1(C(=O)O)CCN(C(=O)c2cnc(Oc3ccc4c(c3)CC[C@@H](c3ccccc3)O4)s2)C1 (stereo partly drawn) [compound 239] | 2400
54 | O=C(O)C[C@H](O)[C@H](CC1CCCCC1)NC(=O)c1cnc(Oc2ccc3c(c2)CC[C@@H](c2ccccc2)O3)s1 [compound 240] | 1100
55 | CC(C)C[C@H](NC(=O)c1cnc(Oc2ccc3c(c2)CC[C@@H](c2ccccc2)O3)s1)C(=O)O [compound 241] | 600
56 | CC(C)CC(C)(NC(=O)c1cnc(Oc2ccc3c(c2)CC[C@@H](c2ccccc2)O3)s1)C(=O)O (stereo partly drawn) [compound 242] | 700
57 | O=C(N[C@@H](Cc1ccccc1)C(=O)O)c1cnc(Oc2ccc3c(c2)CC[C@@H](c2ccccc2)O3)s1 [compound 244] | 600
58 | COC(=O)CNCc1cnc(Oc2ccc3c(c2)CC[C@@H](c2ccccc2)O3)s1 [compound 245] | 100
59 | O=C(O)CNCc1cnc(Oc2ccc3c(c2)CC[C@@H](c2ccccc2)O3)s1 [compound 246] | 600
60 | O=C(NCc1ccnc(Cl)c1)c1cnc(Oc2ccc3c(c2)CCC(c2cncc(F)c2)O3)s1 (stereo not drawn) [compound 247] | 700
61 | O=C(NCc1ccno1)c1cnc(Oc2ccc3c(c2)CCC(c2cncc(F)c2)O3)s1 (stereo not drawn) [compound 248] | 800
62 | O=C(NCCO)c1cnc(Oc2ccc3c(c2)CCC(c2cccnc2)O3)s1 (stereo not drawn) [compound 249] | 1400
63 | COC(=O)CNC(=O)c1cnc(Oc2ccc3c(c2)CCC(c2cccnc2)O3)s1 (stereo not drawn) [compound 250] | 1200
64 | O=C(N[C@H](CO)c1ccccc1)c1cnc(Oc2ccc3c(c2)CCC(c2cccnc2)O3)s1 (stereo partly drawn) [compound 251] | 1100
65 | O=C(NC(CCO)C1CC1)c1cnc(Oc2ccc3c(c2)CCC(c2cccnc2)O3)s1 (stereo not drawn) [compound 252] | 3200
66 | O=C(NCCO)c1cnc(Oc2ccc3c(c2)CCC(c2cncc(F)c2)O3)s1 (stereo not drawn) [compound 253] | 600
67 | CO[C@H]1CNC[C@@H]1NC(=O)c1cnc(Oc2ccc3c(c2)CC[C@@H](c2ccccc2)O3)s1 [compound 254] | 400
68 | N[C@H]1C[C@@H]1NC(=O)c1cnc(Oc2ccc3c(c2)CC[C@@H](c2ccccc2)O3)s1 [compound 256] | 300
69 | NC1CC(NC(=O)c2cnc(Oc3ccc4c(c3)CC[C@@H](c3ccccc3)O4)s2)C1 (stereo partly drawn) [compound 257] | 400
